Data from patent US8674113B2, “Compounds” (Boehringer Ingelheim International GmbH, priority 2010, dated 2014).
Read-outs that look alike come from different tables or passages of the source.

Tests used:
[1] = molecular target: recombinant human mPGES-1 (Homo sapiens (Human), UniProt O14684); assay: mPGES-1 enzyme assay (HTRF detection of PGE2); type: biochemical
Method: Microsomes from Rosetta E. coli bacteria expressing recombinant human mPGES-1 can be derived as described below:
Inoculate 5 ml LB with Ampicilin (50 μg/ml) and Chloramphenicol (34 μg/ml) with bacteria from freeze culture. Incubate 8 h at 37° C. with 200 rpm. Thereafter, inoculate 500-1000 ml LB containing Amp and Chloro with the 5 ml on culture and grow to OD640 of 0.8-1.0. Chill the culture to +4° C. before induction. Induce the culture with IPTG at a final concentration of 400 μM. Express the protein at room temp 18-23° C. with 200 rpm shaking over night.
The following steps can be performed on the following day: • 1. Spin down the cells in 250 ml centrifuge flasks for 15 min at 7000 rpm (Beckmann Coulte Avanti J-E centrifuge) • 2. Dissolve the pellet from 250 ml culture in 12.5 ml homogenization buffer • 3. (15 mM Tris-HCL pH8, 1 mM EDTA pH8, […], 2.5 mM GSH, 1 Tablet Protease inhibitor per 50 ml buffer) • 4. Disintegrate the cells by sonication, 5×10 seconds at 48% amplitude of a 750 W sonifier • 5. Add 2.5 ml MgCl2 (100 mM) and DNase 12.5 μl (0.8 mg/ml) and incubate on ice for 30 min • 6. Spin down the bacteria debris and save the supernatant, 7000 rpm for 15 min • 7. Isolate the protein containing membranes in the supernatant by ultracentrifugation 120000×g for 2 hour at 4° C. (Sorvall T880 rotor). • 8. Discard the supernatant and dissolve the pellet in 20 mM Potassium phosphate buffer pH7.4 (KH2PO4 and K2HPO4) buffer by sonication (5×10 s, 30% of a 50 W sonifier) and aliquot the enzyme and store aliquots at −80° C.
Before each experiment is performed an aliquot of the enzyme is thawed and it can then be dissolved in 0.1 M Potassium phosphate buffer pH7.4 (KH2PO4 and K2HPO4) buffer containing 2.5 mM GSH.
The aim of this assay is to determine the affinity of a test compound for the mPGES-1 enzyme.
47 μl of recombinant human mPGES-1 (˜0.5 μg protein/well) containing microsomal suspension in a buffer containing GSH, (2.5 mmol/L L-Glutathione reduced, dissolved in 0.1 mol/L Phosphat Buffer pH 7.4) is dispensed in a 384-well plate and thereafter 1 μl of the test compound(s) is/are added and incubated for 25 minutes at room temperature. The enzyme reaction is started by the addition of 2 ul PGH2 (final conc 2 μM) disolved in water-free Diglyme. After 60 seconds the reaction is terminated by addition of a stop solution containing FeCl2 (10 μL 0.074 mol/l FeCl2). The samples are diluted between 1:25 in PBS (Phosphate Buffered Saline). 10 μl of the diluted samples are transferred to 384-well low volume plate. In order to quantify the amount of PGE2 that has been formed, a homogenous time resolved fluorescent (HTRF) detecting of PGE2 has been performed using a commercially available kit from Cisbio according to the manufactures recommendation. This HTRF-based assay has been described in detail (see: Goedken et al., J Biomol Screen, 2008, 13(7), 619-625). Briefly, the diluted samples are mixed with 5 μl PGE2-d2 conjugate and 5 μl anti-PGE2 cryptate conjugate. After an incubation period of the plates over night, the fluorescence is measured by the use of an appropriate microplate reader.
The fluorescence of Europium cryptate (maxex=307 nm, maxem=620 nm) and d2-PGE2 (maxex=620 nm, maxem=665 nm) are measured.
The extent of the specific HTRF is measured as a ratio of the emission intensity at 665 nm vs. that at 620 nm at an excitation puts of 320 nm. The quantification plate contains also wells with different concentrations of PGE2 as calibration curve for the calculation of the PGE2 concentrations from the HTRF ratio values.
From all mPGES enzyme assay the background is subtracted and the IC50 is calculated over a nonlinear regression with conventional software.

[2] = molecular target: mPGES-1 in A549 cells (Homo sapiens (Human), UniProt O14684); assay: A549 cell-based assay (PGE2 formation, 50% human serum)
Method: Although the enzymatic assay is a high throughput assay the disadvantage is that it uses a recombinant protein which is not in its natural environment. Accordingly a cellular assay was established in which a cell line of human origin (A549) expressing the mPGES-1 protein was used. In addition in order to mimic the situation in humans in which compounds can be bound to plasma proteins 50% human serum is added in the assay.
A549 cells (ATCC: CCL-185) are grown to about 90% confluence in F-12K Nutrient Mixture (Kaighn's Mod. Gibco) containing 10% FBS in a humified incubator at 37° C. and 5% CO2. Cells were detached using Trypsin-EDTA. A549 cells were seeded in a 384-well collagene plate at a density of 7000 cells/well (50 μl) in F-12 medium containing 1% Penicillin-Streptomycin and 50% human serum. The cells were allowed to attach for 3-4 h. After that the cells were incubated for 20-24 h in F-12k medium supplemented with 50% human serum, 1% Penicillin-Streptomycin and containing IL-1β at a final concentration of 5 ng/ml as well as 10 nM arachidonic acid in the presence of a vehicle or a test compound. The total volume is 100 μl.
Concentrations of PGE2 in the cell free medium (10 μl) were measured using a commercially available HTRF kit from Cisbio (as described above). The PGE2 formation in the absence of test compound was taken as 100%.
IC50 values were derived from at 6-8 point titrations using conventional software.

[3] = recombinant human mPGES-1 microsomes, PGH2 2 μM, 60 seconds, read-out: mPGES-1 inhibitory effect IC50 in the enzyme assay
[4] = IL-1β 5 ng/ml, 10 nM arachidonic acid, 20-24 h, read-out: mPGES-1 inhibitory effect IC50 in the cell assay
[5] = Table C comparison of selected benzimidazoles, read-out: Enzym IC50
[6] = Table C comparison of selected benzimidazoles, read-out: Cell IC50

Chain of mPGES-1 in A549 cells (O14684 whole entry): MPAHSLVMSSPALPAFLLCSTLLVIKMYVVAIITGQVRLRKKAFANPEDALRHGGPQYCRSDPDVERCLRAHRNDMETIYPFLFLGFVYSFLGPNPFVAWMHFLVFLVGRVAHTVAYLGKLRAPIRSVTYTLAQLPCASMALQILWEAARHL
Chain of recombinant human mPGES-1 (O14684 whole entry): as above

| Compound | IC50 [1, 3] [nM] | IC50 [2, 4] [nM] | IC50 [1, 5] [nM] | IC50 [2, 6] [nM] |
| --- | --- | --- | --- | --- |
| Cn1c(Nc2c(Cl)ccc(CNC(=O)C(C)(C)C)c2Cl)nc2cc(C(=O)Nc3ccc(F)c(Cl)c3)c(N3CCC(F)CC3)cc21 [Example 1, N-(4-Fluoro-3-chloro-phenyl)-2-{2,6-dichloro-3-[(2,2-dimethyl-propionylamino)-methyl]-phenylamino}-6-(4-fluoro-piperidinyl)-1-methyl-1H-benzimidazole-5-carboxylic acid amide] | 2 | 1 |  |  |
| CN(CC(F)F)c1cc2c(cc1C(=O)Nc1ccc(F)c(Cl)c1)nc(Nc1c(Cl)ccc(CNC(=O)C(C)(C)C)c1Cl)n2C [Example 2, N-(4-Fluoro-3-chloro-phenyl)-2-{2,6-dichloro-3-[(2,2-dimethyl-propionylamino)-methyl]-phenylamino}-6-[N-methyl-N-(2,2-difluoroethyl)-amino]-1-methyl-1H-benzimidazole-5-carboxylic acid amide] | 2 | < 1 | 2 | < 1 |
| Cn1c(Nc2c(Cl)ccc(CNC(=O)C(C)(C)C)c2Cl)nc2cc(C(=O)N[C@H]3CC[C@H](C(F)(F)F)CC3)c(NC3CC(F)(F)C3)cc21 [Example 4, N-(trans-4-Trifluoromethyl-cyclohexyl)-2-{2,6-dichloro-3-[(2,2-dimethyl-propionylamino)-methyl]-phenylamino}-6-[3,3-difluoro-cyclobutylamino]-1-methyl-1H-benzimidazole-5-carboxylic acid amide] | 5 | 20 |  |  |
| CC(C)(C)C(=O)NCc1ccc(F)c(Nc2nc3cc(C(=O)N[C@H]4CC[C@H](C(F)(F)F)CC4)c(N4CCC(F)CC4)cc3[nH]2)c1F [Example 5, N-(trans-4-Trifluoromethyl-cyclohexyl)-2-{2,6-difluoro-3[(2,2-dimethyl-propionylamino)-methyl]-phenylamino}-6-[4-fluoro-piperidinyl]-1H-benzimidazole-5-carboxylic acid amide] | 2 | 39 |  |  |
| Cn1c(Nc2c(Cl)ccc(CNC(=O)C(C)(C)C)c2Cl)nc2cc(C(=O)NCC(F)(F)F)c(N3CCC(F)CC3)cc21 [Example 10] | 2 | 1 |  |  |
| CC(C)(C)C(=O)NCc1ccc(Cl)c(Nc2nc3cc(C(=O)NCC(F)(F)F)c(N4CCC(F)CC4)cc3[nH]2)c1Cl [Example 11] | 3 | 3 |  |  |
| Cn1c(Nc2c(F)ccc(CNC(=O)C(C)(C)C)c2F)nc2cc(C(=O)N[C@H]3CC[C@H](C(F)(F)F)CC3)c(N3CCC(F)CC3)cc21 [Example 12] | 3 | 3 |  |  |
| Cn1c(Nc2c(Cl)ccc(CNC(=O)C(C)(C)C)c2Cl)nc2cc(C(=O)NC3CC(F)(F)C3)c(N3CCC(C(F)(F)F)CC3)cc21 [Example 14] | 1 | < 1 |  |  |
| Cn1c(Nc2c(Cl)ccc(CNC(=O)C(C)(C)C)c2Cl)nc2cc(C(=O)Nc3ccc(F)c(Cl)c3)c(NC3CC(F)(F)C3)cc21 [Example 15] | 4 | 23 |  |  |
| Cn1c(Nc2c(Cl)ccc(CNC(=O)C(C)(C)C)c2Cl)nc2cc(C(=O)NCC(F)(F)F)c(N3CCC(F)(F)C3)cc21 [Example 26, N-(2,2,2-Trifluoroethyl)-2-{2,6-dichloro-3-[(2,2-dimethyl-propionylamino)-methyl]-phenylamino}-6-[3,3-difluoro-pyrrolidinyl]-1-methyl-1H-benzimidazole-5-carboxylic acid amide] | 3 | 3.6 |  |  |

More lines, now with the values ahead:

| IC50 [1, 3] [nM] | IC50 [2, 4] [nM] | IC50 [1, 5] [nM] | IC50 [2, 6] [nM] | Compound |
| --- | --- | --- | --- | --- |
| 3 | 6 | 3 | 6 | Cn1c(Nc2c(Cl)ccc(CNC(=O)C(C)(C)C)c2Cl)nc2cc(C(=O)Nc3ccc(F)c(Cl)c3)c(NCC(F)F)cc21 [Example 17] |
| 3 | 4 |  |  | Cn1c(Nc2c(Cl)ccc(CNC(=O)C(C)(C)C)c2Cl)nc2cc(C(=O)N[C@H]3CC[C@H](C(F)(F)F)CC3)c(N3CC[C@H](F)C3)cc21 [Example 18] |
| 3 | 1 |  |  | Cn1c(Nc2c(Cl)ccc(CNC(=O)C(C)(C)C)c2Cl)nc2cc(C(=O)N[C@H]3CC[C@H](C(F)(F)F)CC3)c(N3CC[C@@H](F)C3)cc21 [Example 19] |
| 4 | 2.5 |  |  | Cn1c(Nc2c(Cl)ccc(CNC(=O)C(C)(C)C)c2Cl)nc2cc(C(=O)N[C@H]3CC[C@H](C(F)(F)F)CC3)c(N3CC(F)(F)C3)cc21 [Example 21] |
| 5 | 1.5 |  |  | Cn1c(Nc2c(Cl)ccc(CNC(=O)C(C)(C)C)c2Cl)nc2cc(C(=O)N[C@H]3CC[C@H](C(F)(F)F)CC3)c(N3CC4CC4C3)cc21 (stereo partly shown) [Example 22] |
| 4 | 1 |  |  | CN(c1cc2c(cc1C(=O)NCC(F)(F)F)nc(Nc1c(Cl)ccc(CNC(=O)C(C)(C)C)c1Cl)n2C)C1CC1 [Example 23] |
| 5 | 44 |  |  | Cn1c(Nc2c(Cl)ccc(CNC(=O)C(C)(C)C)c2Cl)nc2cc(C(=O)N[C@H]3CC[C@H](C(F)(F)F)CC3)c(N3CCn4cncc4C3)cc21 [Example 24] |
| 4 | 12 |  |  | CN1CCN(c2cc3c(cc2C(=O)N[C@H]2CC[C@H](C(F)(F)F)CC2)nc(Nc2c(Cl)ccc(CNC(=O)C(C)(C)C)c2Cl)n3C)CC1=O [Example 25] |
| 2 | 2 |  |  | CN(c1cc2c(cc1C(=O)NCC(F)(F)F)nc(Nc1c(Cl)ccc(CNC(=O)C(C)(C)C)c1Cl)n2C)C1CCCC1 [Example 27] |
| 2 | 1.5 |  |  | Cn1c(Nc2c(Cl)ccc(CNC(=O)C(C)(C)C)c2Cl)nc2cc(C(=O)NCC(F)(F)F)c(N3CCC(C(F)(F)F)CC3)cc21 [Example 28] |
| 2 |  |  |  | Cn1c(Nc2c(Cl)ccc(CNC(=O)C(C)(C)C)c2Cl)nc2cc(C(=O)N[C@H]3CC[C@H](C(F)(F)F)CC3)c(N3CC4CCC3C4)cc21 (stereo partly shown) [Example 127] |
| 3 |  |  |  | CC(C)(O)Cn1c(Nc2c(Cl)ccc(CNC(=O)C(C)(C)C)c2Cl)nc2cc(C(=O)N[C@H]3CC[C@H](C(F)(F)F)CC3)c(N3CCOCC3)cc21 [Example 168] |
